Results as given in patent publication US11148991B2, “5-bromo-2-(alpha-hydroxypentyl)benzoic acid sodium salts in different crystal forms, and preparation method thereof” (priority 2013, dated 2021).

Legend:
Rat = test: Sub-acute toxicity, rat
[1] = Effect on body weight of rats; format: in vivo; conditions: for BW: in g (unit assumed)
blood routine tests = test: Sub-acute toxic effect on blood routine tests; format: in vivo, Rat; design: WBC / RBC: unit not given beside the values; conditions: for PLT: in 10^9/L (unit assumed); for Lymphocyte (LYM): in % (unit assumed); for HGB: in g/L (unit assumed)
[2] = tested on: liver and kidney functions in rats; test: Sub-acute toxic effect on liver and kidney functions in rats; format: in vivo; design: AST: unit not given here; conditions: for Albumin (ALB) / Total Proteins (TP): in g/L (unit assumed); for Creatinine (CRE): in µmol/L (unit assumed)
[3] = Day 6, rats F, ig group 20 mg/kg
[4] = Day 6, rats F, iv group 12 mg/kg
[5] = Day 6, rats M, ig group 20 mg/kg
[6] = Day 6, rats M, iv group 12 mg/kg
[7] = Day 11, rats F, ig group 20 mg/kg
[8] = Day 11, rats F, iv group 12 mg/kg
[9] = Day 11, rats M, ig group 20 mg/kg
[10] = Day 11, rats M, iv group 12 mg/kg
[11] = Day 16, rats F, ig group 20 mg/kg
[12] = Day 16, rats F, iv group 12 mg/kg
[13] = Day 16, rats M, ig group 20 mg/kg
[14] = Day 16, rats M, iv group 12 mg/kg
[15] = Day 21, rats F, ig group 20 mg/kg
[16] = Day 21, rats F, iv group 12 mg/kg
[17] = Day 21, rats M, ig group 20 mg/kg
[18] = Day 21, rats M, iv group 12 mg/kg
[19] = Day 24, rats F, ig group 20 mg/kg
[20] = Day 24, rats F, iv group 12 mg/kg
[21] = Day 24, rats M, ig group 20 mg/kg
[22] = Day 24, rats M, iv group 12 mg/kg
[23] = rats F, iv (12 mg/kg), in U/L (unit assumed)

CCCCC(O)c1ccc(Br)cc1C(=O)[O-].[Na+] (stereo not drawn) [BZP (amorphous form), 5-bromo-2-(α-hydroxypentyl)benzoic acid sodium salt]
Sub-acute (Rat; ig): >20 mg/kg | Sub-acute (Rat; iv): >12 mg/kg | BW ([1]; Day 1, rats F, ig group 20 mg/kg): 179 ± 12 | BW ([1]; Day 1, rats F, iv group 12 mg/kg): 182 ± 13 | BW ([1]; Day 1, rats M, ig group 20 mg/kg): 183 ± 8 | BW ([1]; Day 1, rats M, iv group 12 mg/kg): 179 ± 13 | ΔW (%) [1, 3]: 7 ± 4% | BW [1, 3]: 192 ± 16 | ΔW (%) [1, 4]: 7 ± 2% | BW [1, 4]: 195 ± 12 | ΔW (%) [1, 5]: 15 ± 3% | BW [1, 5]: 210 ± 8 | ΔW (%) [1, 6]: 14 ± 6% | BW [1, 6]: 204 ± 7 | ΔW (%) [1, 7]: 7 ± 2 % | BW [1, 7]: 203 ± 14 | ΔW (%) [1, 8]: 3 ± 2 % | BW [1, 8]: 200 ± 15 | ΔW (%) [1, 9]: 17 ± 5% | BW [1, 9]: 245 ± 12 | ΔW (%) [1, 10]: 14 ± 2 % | BW [1, 10]: 238 ± 6 | ΔW (%) [1, 11]: 25 ± 4 % | BW [1, 11]: 224 ± 11 | ΔW (%) [1, 12]: 21 ± 7 % | BW [1, 12]: 212 ± 14 | ΔW (%) [1, 13]: 53 ± 14% | BW [1, 13]: 280 ± 18 | ΔW (%) [1, 14]: 31 ± 10% | BW [1, 14]: 270 ± 6 | ΔW (%) [1, 15]: 29 ± 6 % | BW [1, 15]: 230 ± 15 | ΔW (%) [1, 16]: 23 ± 6 % | BW [1, 16]: 223 ± 20 | ΔW (%) [1, 17]: 75 ± 14% | BW [1, 17]: 320 ± 18 | ΔW (%) [1, 18]: 66 ± 15 % | BW [1, 18]: 296 ± 8 | ΔW (%) [1, 19]: 31 ± 5 % | BW [1, 19]: 235 ± 12 | ΔW (%) [1, 20]: 21 ± 6 % | BW [1, 20]: 221 ± 19 | ΔW (%) [1, 21]: 84 ± 14% | BW [1, 21]: 337 ± 18 | ΔW (%) [1, 22]: 71 ± 16 % | BW [1, 22]: 304 ± 10 | Basophil (RAS) (blood routine tests; F, ig (20 mg/kg)): 1.43 ± 1.17 | Eosinophil (EOS) (blood routine tests; F, ig (20 mg/kg)): 0.23 ± 0.12 | Monocyte (MON) (blood routine tests; F, ig (20 mg/kg)): 2.05 ± 1.74 | Neutrophil (NEU) (blood routine tests; F, ig (20 mg/kg)): 28.44 ± 10.20 | RBC (blood routine tests; F, ig (20 mg/kg)): 4.51 ± 3.30 | WBC (blood routine tests; F, ig (20 mg/kg)): 4.44 ± 2.24 | PLT (blood routine tests; F, ig (20 mg/kg)): 1146.00 ± 74.22 | Lymphocyte (LYM) (blood routine tests; F, ig (20 mg/kg)): 66.45 ± 11.13 | HGB (blood routine tests; F, ig (20 mg/kg)): 117.00 ± 19.70 | Basophil (RAS) (blood routine tests; F, iv (12 mg/kg)): 0.56 ± 0.15 | Eosinophil (EOS) (blood routine tests; F, iv (12 mg/kg)): 0.76 ± 0.50 | Monocyte (MON) (blood routine tests; F, iv (12 mg/kg)): 3.62 ± 0.63 | Neutrophil (NEU) (blood routine tests; F, iv (12 mg/kg)): 21.44 ± 2.74 | RBC (blood routine tests; F, iv (12 mg/kg)): 6.95 ± 1.06 | WBC (blood routine tests; F, iv (12 mg/kg)): 5.20 ± 1.53 | PLT (blood routine tests; F, iv (12 mg/kg)): 1075.00 ± 41.70 | Lymphocyte (LYM) (blood routine tests; F, iv (12 mg/kg)): 73.62 ± 2.16 | HGB (blood routine tests; F, iv (12 mg/kg)): 125.60 ± 16.68 | Basophil (RAS) (blood routine tests; M, ig (20 mg/kg)): 0.62 ± 0.25 | Eosinophil (EOS) (blood routine tests; M, ig (20 mg/kg)): 0.56 ± 0.50 | Monocyte (MON) (blood routine tests; M, ig (20 mg/kg)): 4.93 ± 1.91 | Neutrophil (NEU) (blood routine tests; M, ig (20 mg/kg)): 23.88 ± 5.48 | RBC (blood routine tests; M, ig (20 mg/kg)): 7.61 ± 0.28 | WBC (blood routine tests; M, ig (20 mg/kg)): 5.18 ± 0.71 | PLT (blood routine tests; M, ig (20 mg/kg)): 1258.20 ± 281.33 | Lymphocyte (LYM) (blood routine tests; M, ig (20 mg/kg)): 70.84 ± 3.99 | HGB (blood routine tests; M, ig (20 mg/kg)): 134.00 ± 19.13 | Basophil (RAS) (blood routine tests; M, iv (12 mg/kg)): 0.40 ± 0.12 | Eosinophil (EOS) (blood routine tests; M, iv (12 mg/kg)): 0.60 ± 0.29 | Monocyte (MON) (blood routine tests; M, iv (12 mg/kg)): 3.80 ± 0.70 | Neutrophil (NEU) (blood routine tests; M, iv (12 mg/kg)): 22.16 ± 4.14 | RBC (blood routine tests; M, iv (12 mg/kg)): 7.86 ± 0.40 | WBC (blood routine tests; M, iv (12 mg/kg)): 5.66 ± 2.23 | PLT (blood routine tests; M, iv (12 mg/kg)): 1087.20 ± 56.34 | Lymphocyte (LYM) (blood routine tests; M, iv (12 mg/kg)): 72.50 ± 4.66 | HGB (blood routine tests; M, iv (12 mg/kg)): 141.40 ± 7.20 | AST ([2]; rats F, ig (20 mg/kg)): 168.00 ± 17.19 | Blood urea nitrogen (BUN) ([2]; rats F, ig (20 mg/kg)): 3.80 ± 0.59 | Total Bilirubin (TBIL) ([2]; rats F, ig (20 mg/kg)): 2.10 ± 0.40 | Creatinine kinase (CK) ([2]; rats F, ig (20 mg/kg), in U/L (unit assumed)): 776.00 ± 437.68 | Albumin (ALB) ([2]; rats F, ig (20 mg/kg)): 32.43 ± 1.14 | Total Proteins (TP) ([2]; rats F, ig (20 mg/kg)): 46.63 ± 1.07 | Creatinine (CRE) ([2]; rats F, ig (20 mg/kg)): 57.50 ± 3.11 | AST ([2]; rats F, iv (12 mg/kg)): 202.40 ± 68.12 | Blood urea nitrogen (BUN) ([2]; rats F, iv (12 mg/kg)): 4.00 ± 0.43 | Total Bilirubin (TBIL) ([2]; rats F, iv (12 mg/kg)): 2.72 ± 0.67 | ALT [2, 23]: 38.00 ± 9.82 | Creatinine kinase (CK) [2, 23]: 636.80 ± 536.05 | Albumin (ALB) ([2]; rats F, iv (12 mg/kg)): 33.96 ± 1.71 | Total Proteins (TP) ([2]; rats F, iv (12 mg/kg)): 49.00 ± 0.79 | Creatinine (CRE) ([2]; rats F, iv (12 mg/kg)): 55.40 ± 2.30 | AST ([2]; rats M, ig (20 mg/kg)): 4.92 ± 0.75 | Blood urea nitrogen (BUN) ([2]; rats M, ig (20 mg/kg)): 2.76 ± 1.09 | Total Bilirubin (TBIL) ([2]; rats M, ig (20 mg/kg)): 2.24 ± 1.50 | Creatinine kinase (CK) ([2]; rats M, ig (20 mg/kg), in U/L (unit assumed)): 938.60 ± 553.43 | Albumin (ALB) ([2]; rats M, ig (20 mg/kg)): 28.98 ± 7.34 | Total Proteins (TP) ([2]; rats M, ig (20 mg/kg)): 40.26 ± 15.78 | Creatinine (CRE) ([2]; rats M, ig (20 mg/kg)): 38.80 ± 25.62 | AST ([2]; rats M, iv (12 mg/kg)): 5.34 ± 1.33 | Blood urea nitrogen (BUN) ([2]; rats M, iv (12 mg/kg)): 3.46 ± 0.72 | Total Bilirubin (TBIL) ([2]; rats M, iv (12 mg/kg)): 3.10 ± 1.23 | Creatinine kinase (CK) ([2]; rats M, iv (12 mg/kg), in U/L (unit assumed)): 762.00 ± 351.72 | Albumin (ALB) ([2]; rats M, iv (12 mg/kg)): 36.90 ± 6.72 | Total Proteins (TP) ([2]; rats M, iv (12 mg/kg)): 53.40 ± 8.69 | Creatinine (CRE) ([2]; rats M, iv (12 mg/kg)): 66.60 ± 15.09
